Experimental data published in patent publication EP4790048A1, “S1PR4 REGULATOR COMPOUND FOR AUTOIMMUNE DISEASE TREATMENT AND APPLICATION THEREOF” (Shengyuan Zetong (Shanghai) Pharmaceutical Co., Ltd, priority 2023, dated 2025).
“Also recorded” adds a separate entry of the source.

How the values were obtained:
Assay type in all cases: in vivo
[1] = tested on: SKG mice; assay: Curdlan-induced ankylosing spondylitis (AS) model in SKG mice; details: compound 30 3 mg/kg; for peripheral clinical symptom scores: Week 12, compound 67 3 mg/kg intragastric daily, adalimumab 10 mg/kg i.p., P < 0.05 vs model group; for swelling of the wrist and ankle joints / spinal CT imaging scores: compound 67 3 mg/kg; for spinal CT imaging scores: adalimumab 10 mg/kg, P<0.05 vs model group
Protocol: After adaptive feeding, SKG mice were used for the experiment. Except for 5 mice as the blank control group, the other 20 mice were intraperitoneally injected with Curdlan (3 mg per mouse) at week 0 and week 2 of the experiment to establish an AS mouse model, and were randomly divided into 4 groups: model group, positive control group treated with adalimumab (10 mg/kg), compound 30 group (3 mg/kg), and compound 67 group (3 mg/kg), with 5 mice in each group. Mice in the compound 30 and 67 groups were intragastrically administered compound 30 and 67 daily starting from week 3.3 until sacrifice; the positive control group received intraperitoneal injection of adalimumab injection (first administration at week 3.3, second at week 9). Body weight was measured every week to adjust the dosage.
Clinical symptom observation of the limbs and toes were conducted, and their redness and swelling were scored, with a total score of 16 points (4 points per foot).
• 0 = No swelling • 1 = Mild swelling and redness on the top of the foot • 2 = Severe swelling and redness on the top of the foot • 3 = Severe swelling and redness in the wrist or ankle joint • 4 = Severe swelling in the wrist or ankle joint and toes.
CT scans were performed on mice at Week 13.4 and 14.3 of the experiment to obtain imaging data of the mice's bones and joints. Image WL: 1400; WW: 2000.
• 1. Spine (total 2 points): 1 point for narrowed intervertebral space, 2 points for complete fusion. • 2. Sacroiliac joints (1 point for each side, total 2 points): 0.5 points for blurred and sclerotic articular surface, 0.5 points for narrowed joint space. • 3. Zygapophyseal joints of the spine (1 point for each side, total 2 points): 0.5 points for narrowed joint space, 1 point for complete fusion.
Analysis of variance (ANOVA) was performed using IBM SPSS Statistics software to obtain statistical results of the dataset, with P < 0.05 considered statistically significant.

[2] = tested on: MRL/lpr mice; assay: Systemic lupus erythematosus model, MRL/lpr mice; details: for renal pathology (HE and PAS staining): 8 weeks of treatment
Protocol: Based on this, the inventor conducted efficacy evaluation on this compound using MRL/lpr mice, a classic model of lupus erythematosus.
The efficacy of Compound 67 was evaluated using MRL/Lpr lupus model mice.
The specific groups were as follows: MPJ control group, model group, positive drug Cenerimod group at 0.5 mg/kg, and Compound 67 at two doses: 1 mg/kg and 3 mg/kg.

[3] = tested on: SD rats; assay: MIA-induced osteoarthritis (OA) model in rats; details: for gross observation of knee joint femoral condyle cartilage: Day 15 dissection, 5 rats per group
Protocol: SD rats, approximately 200 g, male. Purchased from Shanghai Bikai Animal Co., Ltd. Adaptive feeding was conducted for about 7 days.
3.1.1 Anesthesia: the rat was placed into the anesthesia box, the O2 gas source and the gas delivery pump were turned on, and the gas adjustment knob was rotated to set the ratio of O2 to isoflurane at 8:2. The anesthesia depth knob was adjusted: first the indicator was turned to 3 to induce deep anesthesia in the rat; during the subsequent surgical procedure, the indicator was adjusted to 1.5 to maintain anesthesia. The three-way valve was opened to deliver gas into both the anesthesia box and the rat anesthesia mask.
The syringe needle was inserted at a 45° angle to the plateau along the lateral side of the patellar ligament, as shown in the figure below. The Control group is injected with 50 µl of 0.9% sterile normal saline, while the other groups are injected with 50 µl of sterile normal saline containing 3 mg of MIA. After the procedure, the rat was removed, placed in a breeding cage, and irradiated with an incandescent lamp to help restore body temperature until the rat recovers from anesthesia.
The Control group was administered 5% DMSO + 35% PEG400 + 60% normal saline. The compounds were dissolved in a system consisting of 5% dimethyl sulfoxide (DMSO), 35% polyethylene glycol 400 (PEG 400), and 60% normal saline. The drug solutions were prepared on the evening one day before administration.
The rats were acclimated for 1 week and randomly divided into groups, with a total of 10 rats. The Control group was administered 5% DMSO + 35% PEG400 + 60% normal saline, while the other groups were given the test compounds dissolved in 5% DMSO + 35% PEG400 + 60% normal saline.
3.4.1. From Day 1 to Day 14 of the experiment, the rats were administered intragastrically once daily, with a gavage volume of 5 mL/kg. The Control group and Model group were given 5% DMSO + 35% PEG400 + 60% normal saline throughout the experiment, while the other groups were administered the corresponding drugs.
On Day 7 and Day14 of the experiment, behavioral and joint pain tests were performed on the rats. To minimize confounding factors, the tests were conducted 1 hour after administration at a fixed time, preventing variations in the rats' condition at different time points from affecting the experimental results. The rats were allowed to acclimate to the environment for 20 minutes before the start of the experiment. • (1) Observation of walking distance and rearing times within five minutes: the dimensions of the resin box were measured and a paper sheet of the corresponding size was prepared. 1 cm × 1 cm grids were drawn on the paper sheet. The paper sheet was sealed with a transparent tape to prevent damage from rat excrement. Then the paper sheet with 1 cm × 1 cm grids was placed into the transparent resin box, ensuring a flat bottom. A camera device was used to record the walking process and trajectory of the rat within 5 minutes, and the walking distance and rearing times of the rat were counted. • (2) Joint Pain Assessment: After fixing the rat and allowing it to calm down, its knee joint was gently bent. […] The knee joint pain severity in rats is reflected by the scores of leg withdrawal and vocalization. The joint pain assessment was performed every 5 seconds for a total of 5 times.
On Day 15 of the experiment, the rats were anesthetized, and blood was collected from their eyeballs. The serum was left to stand overnight at 4°C, centrifuged at 3600 rpm for 15 minutes at 4°C. The serum was aspirated and stored at -80°C. The rats were sacrificed by cervical dislocation. An incision was made along the knee joint on ice to remove fur, muscle, and other tissues. For each group, 5 rats were used; bilateral knee joints were dissected, and the color, roughness, and integrity of the femoral condyle surface were observed. The knee joint cartilage was then harvested and cryopreserved at -80°C. […]

[4] = DAY7, 0.3 mg/kg intragastric once daily, vs Model group
[5] = DAY7, 3 mg/kg intragastric once daily, vs Model group
[6] = DAY14, 0.3 mg/kg, vs Model group
[7] = Compound 67 1 mg/kg and 3 mg/kg, 8 weeks, vs SLE model group

## CCc1cc(/C(C)=N/OCc2ccc(-c3ccccc3)c(C)c2)ccc1CN1CC[C@H](C(=O)O)C1 [Compound 30]
[1]
  peripheral clinical symptom scores: significantly lower
  swelling of the wrist and ankle joints: significantly reduced swelling of the wrist and ankle joints
  spinal CT imaging scores: significantly lower imaging scores
[2]; vs SLE model group
  renal pathology (HE and PAS staining): improves renal pathological injury; also recorded: renal interstitial inflammatory cell infiltration was significantly reduced
  Th1- and Th17-positive cells in spleen, Th1/Th2 and Th17/Treg ratios: regulates the number and ratio of T lymphocytes; also recorded: significantly reduce the number of Th1- and Th17-positive cells
[2]; 8 weeks, vs SLE model group
  serum anti-nuclear / anti-double-stranded DNA antibody level: dose-dependently reduces; also recorded: markedly decreased
[2]; SLE mice, vs model
  subcutaneous nodules: dose-dependently reduces; also recorded: significantly reduced subcutaneous nodules
[2]; continuous administration for 8 weeks, vs SLE model group
  body weight gain and mortality: reduces the mortality rate; also recorded: prevented body weight gain and reduced mortality in a dose-dependent manner
[3]; 0.3 mg/kg, vs Model group
  OARSI score (severity of knee osteoarthritis): showed significant differences
[3]; 1 mg/kg, vs Model group
  OARSI score (severity of knee osteoarthritis): showed significant differences
[3]; 3 mg/kg, vs Model group
  OARSI score (severity of knee osteoarthritis): showed significant differences
[3]; [4]
  pain index: significantly decreased
[3]; DAY7, 0.3 mg/kg, vs Model group
  five-minute walking distance: increased significantly
[3]; DAY7, 1 mg/kg, vs Model group
  five-minute walking distance: increased significantly
[3]; [5]
  pain index: significantly decreased
[3]; [6]
  five-minute walking distance: increased significantly
[3]; DAY14, 1 mg/kg, vs Model group
  pain index: significantly decreased
[3]; DAY14, 3 mg/kg, vs Model group
  five-minute walking distance: increased significantly
  pain index: significantly decreased
[3]
  gross observation of knee joint femoral condyle cartilage: knee cartilage in most rats became smooth and glossy
[3]; vs Model group
  Safranin O-Fast Green staining of knee joints: enhanced safranin staining

## CCc1cc(/C(C)=N/OCc2ccc(-c3cnc(F)cn3)c(C)c2)ccc1CN1CC[C@H](C(=O)O)C1 [Compound 67, (S, E)-1-(2-ethyl-4-(1-(((4-(5-fluoropyrazin-2-yl)-3-methylbenzyl)oxy)imino)ethyl)benzyl)pyrrolidine-3-carboxylic acid]
[1]
  peripheral clinical symptom scores: significantly lower
  swelling of the wrist and ankle joints: significantly reduced swelling of the wrist and ankle joints
  spinal CT imaging scores: significantly lower imaging scores
[2]; vs SLE model group
  renal pathology (HE and PAS staining): inflammatory cell infiltration was significantly reduced
  Th1- and Th17-positive cells in spleen, Th1/Th2 and Th17/Treg ratios: regulates the number and ratio of T lymphocytes; also recorded: significantly reduce the number of Th1- and Th17-positive cells
[2]; 8 weeks, vs SLE model group
  serum anti-nuclear / anti-double-stranded DNA antibody level: significantly reduces the anti-double-stranded DNA antibody level; also recorded: significantly reduce the level of anti-double-stranded DNA antibody
[2]; [7]
  serum creatinine level: significantly reduce the serum creatinine level
  urinary microalbumin level (MAU): significantly reduced the urinary microalbumin level
[3]; 1 mg/kg, vs Model group
  OARSI score (severity of knee osteoarthritis): showed significant effects
[3]; 3 mg/kg, vs Model group
  OARSI score (severity of knee osteoarthritis): showed significant effects
[3]; [4]
  pain index: significantly decreased
[3]; DAY7, 1 mg/kg intragastric once daily, vs Model group
  pain index: significantly decreased
[3]; DAY7, 1 mg/kg, vs Model group
  five-minute walking distance: increased significantly
[3]; [5]
  pain index: significantly decreased
[3]; [6]
  five-minute walking distance: increased significantly
[3]; DAY14, 1 mg/kg, vs Model group
  five-minute walking distance: increased significantly
  pain index: significantly decreased
[3]; DAY14, 3 mg/kg, vs Model group
  five-minute walking distance: increased significantly
  pain index: significantly decreased
[3]
  gross observation of knee joint femoral condyle cartilage: cartilage of most rat knee joints became smooth and bright
[3]; Elisa, vs Model group
  serum IL-10 level: tended to upregulate
  serum IL-17 level: tended to upregulate
[3]; vs Model group
  Safranin O-Fast Green staining of knee joints: enhanced Safranin O staining
